Test system: HepG2 cells
Test: Inhibition of the release of ApoB-100-associated lipoproteins from liver cells (HepG2), immunoassay
Format: cell-based
Conditions: Homo sapiens; HepG2 culture supernatant; light adsorption at 450 nm vs solvent control; release of ApoB-100-associated particles
Description: 1. Inhibition of the release of ApoB-100-associated lipoproteins
The test for detecting the inhibition of the release of ApoB-100-associatedlipoproteins from liver cells was carried out in vitro using cultured liver cells, preferably using cells of the human line HepG2. These cells are cultured under standard conditions in medium for the culture of eucaryotic cells, preferably in RPMI 1640 with 10% foetal calf serum. HepG2 cells synthesize and secrete into the culture supernatant ApoB-100-associated lipoprotein particles which in principle are constructed similarly to the VLDL and LDL particles which are to be found in the plasma.
These particles can be detected using an immunoassay for human LDL. This immunoassay is carried out using antibodies which have been induced in rabbits against human LDL under standard conditions. The anti-LDL antibodies (rabbit anti-LDL-Ab) were purified by affinity chromatography on an immunosorbent using human LDL. These purified rabbit anti-LDL-Ab are adsorbed on the surface of plastic. Expediently, this adsorption takes place on the plastic surface of microtitre plates having 96 depressions, preferably on MaxiSorp plates. If ApoB-100-associated particles are present in the supernatant of Hep-G2 cells, these can bind to the insolubilized rabbit anti-LDL-Abs, and an imunune complex results which is bound to the plastic surface. Unbound proteins are removed by washing. The immune complex on the plastic surface is detected using monoclonal antibodies which have been induced against human LDL under standard conditions and purified. These antibodies were conjugated to the enzyme peroxidase. Peroxidase converts the colourless substrate TMB into a coloured product in the presence of H2 O2. After acidification of the reaction mixture with H2 SO4, the specific light adsorption at 450 nm is determined, which is a measure of the amount of ApoB-100-associated particles which have been secreted into the culture supernatant by the HepG2 cells.
The IC50 value indicates at which substance concentration the light adsorption is inhibited by 50% in comparison with the control (solvent control without substance).

SMILES | IC50 [nM]
Cn1c(=O)c2c(c3ccccc3n2Cc2ccc([C@@H](C(=O)N[C@@H](CO)c3ccccc3)C3CCCC3)cc2)n(C)c1=O (mixture of isomers) [Example 2, 2-(R)- and 2-(S)-2-Cyclopentyl-2-(4-{1,3-dimethyl-1,5-dihydro-2,4-oxo-pyrimido-[5,4-b]indol-5-yl-methyl}phenyl)-aceticacidN-(2-hydroxy-1-(R)-1-phenyl-ethyl)amide] | 1.1
Cn1c(=O)c2c3ccccc3n(Cc3ccc([C@H](C(=O)N[C@@H](CO)c4ccccc4)C4CCCC4)cc3)c2c(=O)n1C [Example 16] | 8.9
CSc1nnc2c3ccccc3n(Cc3ccc(C(C(=O)N[C@@H](CO)c4ccccc4)C4CCCC4)cc3)c2n1 (some centres unmarked) [Example 26] | 1.8

Molecules with a lower IC50, results first:

IC50 [nM] | SMILES
1 | Cc1nc(C)c2c3ccccc3n(Cc3ccc(C(C(=O)NCc4ccncc4)C4CCCC4)cc3)c2n1 (centres unmarked) [Example 10]
0.8 | Cc1nc(C)c2c3ccccc3n(Cc3ccc([C@@H](C(=O)N[C@@H](CO)c4ccccc4)C4CCCC4)cc3)c2n1 [Example 6]

Source: patent US5786361A, “Pyridazino-, pyrimido-, pyrazino- and triazinoindoles, -pyrrolocycloalkenes or pyrrolooxocycloalkenes, or pyridopyrrolylpyrido compounds, compositions containing them, and use thereof to treat atherosclerosis” (Bayer Aktiengesellschaft, priority 1997, dated 1998)
